{"source": "patent US20050215529A1", "about": "“Method of treating oxidative stress-associated conditions with isopentenyl diphosphate” (THE REGENTS OF THE UNIVERSITY OF MICHIGAN, priority 2004, published 2005)", "key": {"[1]": {"test_system": "A2bAR-transfected HEK293 cells", "test": "Comet assay in A2bAR-transfected HEK293 cells", "format": "cell-based", "conditions": "Homo sapiens, 100 μM H2O2, read-out: IC50, DNA damage protection", "procedure": "(§1) A single-cell gel electrophoresis (SCGE) assay, known as the “Comer” assay was performed to detect/quantify DNA damage by identifying DNA-strand breakage in individual cells, for example. The assay was performed using a kit commercially-available from Trevigen, Inc., of Gaithersburg, Md., as “CometAssay™.” See P. J. McCarthy et al. (1997) Mutagenesis 12:209-214; A. R. Collins et al. (2001) Biochem. Soc. Trans. 29:337-341. Sub-confluent cells were washed with phosphate buffered saline (PBS) and detached from the tissue culture flasks using a 0.05% trypsin solution. After centrifugation, the cells were washed and re-suspended in serum-free DMEM medium. […]\n(§2) The slides were placed at 4° C. in the dark for ten minutes and subsequently immersed in pre-chilled Lysis Solution at 4° C. for an additional thirty minutes. […] Comet tail fluorescence intensity was quantified with a Diagnostic Instruments digitized camera, mounted on a Nikon Eclipse E400 microscope, using Scion Image software. Quantification of comet fluorescence was performed as described in P. J. McCarthy et al. (1997) Mutagenesis 12:209-214. […] The data are shown either in arbitrary fluorescent units, or as % DNA damage protection (i.e., the percent decrement in tail fluorescence intensity with test reagent, relative to the intensity recorded in cells treated with hydrogen peroxide only)±S.E.M. […]"}, "[2]": {"test_system": "A2aAR-transfected HEK293 cells", "test": "Comet assay in A2aAR-transfected HEK293 cells", "format": "cell-based", "conditions": "Homo sapiens, 100 μM H2O2, read-out: IC50, DNA damage protection", "procedure": "as §1, §2"}, "[3]": {"test_system": "A1AR-transfected HEK293 cells", "test": "Comet assay in A1AR-transfected HEK293 cells", "format": "cell-based, human", "procedure": "A single-cell gel electrophoresis (SCGE) assay, known as the “Comer” assay was performed to detect/quantify DNA damage by identifying DNA-strand breakage in individual cells, for example. The assay was performed using a kit commercially-available from Trevigen, Inc., of Gaithersburg, Md., as “CometAssay™.” See P. J. McCarthy et al. (1997) Mutagenesis 12:209-214; A. R. Collins et al. (2001) Biochem. Soc. Trans. 29:337-341. Sub-confluent cells were washed with phosphate buffered saline (PBS) and detached from the tissue culture flasks using a 0.05% trypsin solution. After centrifugation, the cells were washed and re-suspended in serum-free DMEM medium. The cells were divided into Eppendorf tubes (1.5 ml), and centrifuged at 2500 rotations per minutes (rpm) for ten minutes. Signal-modulating agents were added and samples were kept in a 37° C. incubator for thirty minutes. In some experiments, the cells were pre-incubated with various inhibitors for the indicated times at 37° C. At the end of the incubation period with signal-modulating chemicals, the cells were washed with PBS and treated with 100 μM H2O2 in 0.5 ml PBS on ice for twenty minutes. Following the hydrogen peroxide treatment, the cells were immediately microfuged for fifteen seconds. The cells were twice washed with cold PBS, and re-suspended at 1.0×10^5 cells/ml in ice-cold PBS. […]\nas §2"}, "[4]": {"test_system": "human fibroblastoid M1 cells", "test": "Measurement of cAMP levels (EIA kit)", "format": "cell-based", "conditions": "10 μM agent, in presence of RO20-1724; FIG. 18", "procedure": "Cyclic AMP levels were measured using a kit that is commercially-available from Amersham Biosciences of Piscataway, N.J., under the name “EIA Kit” (Cat. No. RPN225). Specifically, human fibroblastoid M1 cells were cultured overnight in 6-well tissue culture plates, 2×10^5 cells per well. Before stimulation, the cells were washed once with serum-free DMEM medium and incubated in 37° C. with 0.2 millimolar (mM) RO20-1724, a phosphodiesterase inhibitor, for fifteen minutes. Following this incubation period, 10 μM of either 2-chloroadenosine or isopentenyl diphosphate were added to each cell culture, and the cells cultures were thereafter maintained at 37° C. for the indicated time in the presence of phosphodiesterase inhibitor (RO20-1724). Determination of cAMP levels was performed with the EIA Kit in accordance with its manufacturer's instructions.\nIn another test, human fibroblastoid M1 cells also were stimulated with 10 μM 2-chloroadenosine or isopentenyl diphosphate, and cAMP levels were quantified."}, "[5]": {"test_system": "human fibroblastoid M1 cells", "test": "Comet assay, inhibition of 2CA- or IPP-mediated DNA damage protection by antagonists/inhibitors", "format": "cell-based", "design": "key to Mechanism of Signal Transduction: PKA / Mechanism of Signal Transduction: Mevalonate Pathway / Mechanism of Signal Transduction: GGT / Mechanism of Signal Transduction: FT / Mechanism of Signal Transduction: Proteasome: “+” indicates a dependence; “−” indicates independence", "procedure": "(§3) A single-cell gel electrophoresis (SCGE) assay, known as the “Comer” assay was performed to detect/quantify DNA damage by identifying DNA-strand breakage in individual cells, for example. The assay was performed using a kit commercially-available from Trevigen, Inc., of Gaithersburg, Md., as “CometAssay™.” See P. J. McCarthy et al. (1997) Mutagenesis 12:209-214; A. R. Collins et al. (2001) Biochem. Soc. Trans. 29:337-341. Sub-confluent cells were washed with phosphate buffered saline (PBS) and detached from the tissue culture flasks using a 0.05% trypsin solution. After centrifugation, the cells were washed and re-suspended in serum-free DMEM medium. The cells were divided into Eppendorf tubes (1.5 ml), and centrifuged at 2500 rotations per minutes (rpm) for ten minutes. Signal-modulating agents were added and samples were kept in a 37° C. incubator for thirty minutes. In some experiments, the cells were pre-incubated with various inhibitors for the indicated times at 37° C. At the end of the incubation period with signal-modulating chemicals, the cells were washed with PBS and treated with 100 μM H2O2 in 0.5 ml PBS on ice for twenty minutes. Following the hydrogen peroxide treatment, the cells were immediately microfuged for fifteen seconds. The cells were twice washed with cold PBS, and re-suspended at 1.0×10^5 cells/ml in ice-cold PBS. Five microliter cell suspension were each mixed with 50 μl molten LMAgarose and, thereafter, the mixtures were placed onto slides (CometSlide™).\n(§4) The slides were placed at 4° C. in the dark for ten minutes and subsequently immersed in pre-chilled Lysis Solution at 4° C. for an additional thirty minutes. Following this incubation, excess buffer was tapped off from the slides. Subsequently, the slides were placed in a 50 ml Coplin jar containing alkali buffer for thirty minutes at room temperature in the dark and then immersed in 50 ml of TBE buffer for five minutes. The slides were then placed flat onto a gel tray submerged in TBE buffer in a horizontal electrophoresis apparatus, and aligned equidistant from the electrodes. Electrophoresis was performed at one volt per centimeter (cm) for ten minutes. Following this electrophoresis, the samples were fixed in 100% methanol for five minutes and 100% ethanol for five minutes. After drying, 50 μl of diluted SYBR Green Concentrate was added onto each circle of agarose. Comet tail fluorescence intensity was quantified with a Diagnostic Instruments digitized camera, mounted on a Nikon Eclipse E400 microscope, using Scion Image software. Quantification of comet fluorescence was performed as described in P. J. McCarthy et al. (1997) Mutagenesis 12:209-214. Each data point was derived from 30 to 100 individual cells. The data are shown either in arbitrary fluorescent units, or as % DNA damage protection (i.e., the percent decrement in tail fluorescence intensity with test reagent, relative to the intensity recorded in cells treated with hydrogen peroxide only)±S.E.M.\nSpecifically, […], human fibroblastoid M1 cells were incubated for thirty minutes in either H-89 or 8-bromoguanosine-3′,5′-cyclic monophosphate (8-Br-cGMP) (B), or for fifteen minutes in SNAP, at different concentrations. […] Following induction of oxidative stress, DNA damage was quantified using the Comet assay, as described above. Shown in FIGS. 14-16 are graphs illustrating the DNA damage protection as function of the molar concentration of H-89 (FIG. 14), 8-Br-cGMP (FIG. 15), and SNAP (FIG. 16).\nIn yet another test, human fibroblastoid M1 cells were pre-incubated for fifteen minutes with different concentrations of the A2bAR antagonist, enprofylline (Enpro)."}, "[6]": {"test_system": "human fibroblastoid M1 cells", "test": "Measurement of ROS (DCFH-DA fluorescence)", "format": "cell-based", "conditions": "for H2O2-induced ROS formation: 10 μM agent, 100 μM H2O2, FIG. 4", "experimental": "The presence of reactive oxidative species was measured using commercially-available equipment in accordance with the manufacturer's instructions. Specifically, sub-confluent cells were detached from flasks using 0.05% trypsin and 5×10^3 human fibroblastoid M1 cells per well were seeded into 96-well plates (Falcon 35-3072). After an overnight culture, the cells were twice washed with DMEM-phenol red-free medium. The cells were subsequently treated with various concentrations of signal-modulating agents in the presence of 10 micromolar (μM) DCFH-DA in 100 microliters (μl) DMEM-phenol red-free medium at 37° C. for 30 minutes. This medium was replaced by a 100 μl DMEM-phenol red-free medium containing DCFH-DA and either 50 mU/ml GO, or 100 μM H2O2, and the cultures were subsequently incubated at 37° C. for 30 minutes. After thirty minutes incubation, the plates were read by CytoFluor™ 2300 (Millipore) at an excitation wavelength (Ex) of 480 nm and emission wavelength (Em) of 520 nm, or by Fusion-Alpha HT system (PerkinElmer Life Sciences, Boston, Mass.) at Ex 485 nm and Em 530 nm.\nROS levels were quantified using the Fusion-Alpha HT system, as described above.\nTo verify the efficiency of that pathway, DCFH-DA-loaded human fibroblastoid M1 cells were incubated with 10 μM 2-chloroadenosine for thirty minutes followed by incubation with 100 μM H2O2 for twenty minutes to induce oxidative stress. […] ROS levels were quantified using the CytoFluor™ 2300 system, as described above."}, "[7]": {"test_system": "human fibroblastoid M1 cells", "test": "Comet assay, protection against H2O2-induced DNA damage", "format": "cell-based", "procedure": "as §3, §4\nA dose response analysis of DNA damage protection also was performed to determine the efficacy of various doses of isopentenyl diphosphate versus 2-chloroadenosine. The analysis was carried out by pre-incubating human fibroblastoid M1 cells for thirty minutes with different concentrations of isopentenyl diphosphate or 2-chloroadenosine prior to incubating the cells with 100 μM H2O2 to induce oxidative stress. Following induction of oxidative stress, DNA damage was quantified using the Comet assay, as described above."}, "[8]": {"test_system": "p53-deficient cell lines HL60 and K562 and the nucleotide excision repair-deficient line XPA", "test": "DNA damage protection in p53-deficient and nucleotide excision repair-deficient lines (data not shown)", "format": "cell-based"}, "[9]": {"test_system": "murine L-cell fibroblasts, human cells of lymphoid, fibroblastoid, myeloid, or neuronal lineages", "test": "Antioxidative signaling in other cell lineages and species (data not shown)", "format": "cell-based"}, "[10]": {"conditions": "dependence of DNA damage protection signaling"}}, "note": "Several values for one entry are separate records, joined by “and”; a condition that tells them apart may be missing. Equal values may be shown once. Read-outs that look alike come from different tables or passages of the source.", "data": [{"smiles": "Nc1nc(Cl)nc2c1ncn2[C@@H]1O[C@H](CO)[C@@H](O)[C@H]1O", "note": "[2CA, 2-chloroadenosine]", "values": [{"measurement": "IC50", "setting": "[1]", "value": 120, "unit": "nM"}, {"measurement": "IC50", "setting": "[2]", "value": 140, "unit": "nM"}, {"measurement": "DNA damage protection response", "setting": "[3]; A1AR-transfected HEK293 cells, 100 μM H2O2", "value": "failed to transduce the antioxidative signal"}, {"measurement": "c[AMP]i over time", "setting": "[4]", "value": "triggered an increase"}, {"measurement": "Mechanism of Signal Transduction: FT", "setting": "[5]; [10]", "value": "−"}, {"measurement": "Mechanism of Signal Transduction: GGT", "setting": "[5]; [10]", "value": "−"}, {"measurement": "Mechanism of Signal Transduction: Mevalonate Pathway", "setting": "[5]; [10]", "value": "−"}, {"measurement": "Mechanism of Signal Transduction: PKA", "setting": "[5]; [10]", "value": "+"}, {"measurement": "Mechanism of Signal Transduction: Proteasome", "setting": "[5]; [10]", "value": "−"}, {"measurement": "H2O2-induced ROS formation", "setting": "[6]", "value": "equivalent inhibition of H2O2-induced ROS formation"}, {"measurement": "H2O2-mediated DNA damage", "setting": "[7]; 10 μM agent, 100 μM H2O2 for twenty minutes, FIG. 5", "value": "prevented H2O2-mediated DNA damage"}, {"measurement": "IC50", "setting": "[7]; Homo sapiens, AR agonists and isoprenyls, M1 cells, 100 μM H2O2, Comet assay, read-out: IC50 (pM), DNA damage protection", "value": 2040, "unit": "pM"}, {"measurement": "IC50", "setting": "[7]; Homo sapiens, M1 cells pre-incubated thirty minutes, then 100 μM H2O2, FIGS. 6 and 7, read-out: IC50, DNA damage protection", "value": 2040, "unit": "pM"}, {"measurement": "triggering of DNA damage protection", "setting": "[7]; M1 cells, various concentrations, 100 μM H2O2", "value": "triggered DNA damage protection"}, {"measurement": "DNA damage protection induction", "setting": "[8]; HL60, K562, XPA, data not shown", "value": "intact DNA damage protection induction"}, {"measurement": "response to antioxidative signaling", "setting": "[9]; data not shown", "value": "all could respond"}]}, {"smiles": "C=C(C)CCOP(=O)(O)OP(=O)(O)O", "note": "[IPP, isopentenyl diphosphate]", "values": [{"measurement": "DNA damage protection response", "setting": "[3]", "value": "responded readily"}, {"measurement": "c[AMP]i over time", "setting": "[4]", "value": "did not trigger any meaningful increase"}, {"measurement": "Mechanism of Signal Transduction: FT", "setting": "[5]", "value": "−"}, {"measurement": "Mechanism of Signal Transduction: GGT", "setting": "[5]", "value": "+"}, {"measurement": "Mechanism of Signal Transduction: Mevalonate Pathway", "setting": "[5]", "value": "+"}, {"measurement": "Mechanism of Signal Transduction: PKA", "setting": "[5]", "value": "−"}, {"measurement": "Mechanism of Signal Transduction: Proteasome", "setting": "[5]", "value": "+"}, {"measurement": "H2O2-induced ROS formation", "setting": "[6]", "value": "equivalent inhibition of H2O2-induced ROS formation"}, {"measurement": "ROS generation", "setting": "[6]; different concentrations, 50 mU/ml GO for thirty minutes, FIG. 3", "value": "efficient at blocking ROS generation"}, {"measurement": "H2O2-mediated DNA damage", "setting": "[7]", "value": "prevented H2O2-mediated DNA damage"}, {"measurement": "potency relative to 2-chloroadenosine", "setting": "[7]", "value": "about 100 times"}, {"measurement": "triggering of DNA damage protection", "setting": "[7]", "value": "triggered DNA damage-protection signaling"}, {"measurement": "IC50", "setting": "[7]; read-out: IC50 (pM), DNA damage protection", "value": 17, "unit": "pM"}, {"measurement": "IC50", "setting": "[7]; read-out: IC50, DNA damage protection", "value": "17 pM and ~17 pM"}, {"measurement": "DNA damage protection induction", "setting": "[8]", "value": "intact DNA damage protection induction"}, {"measurement": "response to antioxidative signaling", "setting": "[9]", "value": "all could respond"}]}]}
